Results published in PubChem BioAssay AID2060901 (Molecular Pharmacology Branch, DTP, NCI, 2025).
Blank lines part the entries; values can stand above or below the molecule they belong to.

Tested on: 422866-222-R5-J1-PDC complex spheroids viability
Experiment: Anticancer human tumor 422866-222-R5-J1-PDC patient-derived pancreatic adenocarcinoma cell line growth inhibition [RAS]
Conditions: for IC50: curve of first compound; for viability, T/C: stronger effect = lower value
Summary of the method: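 Agents were tested in combination matrices in half-log decrements from a top concentration at or near clinical Cmax (10 microM if undetermined). Targets were multi-cell spheroids of tumour lines plus HUVEC and MSC stromal cells.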

[1] = second compound 0.000949 µM, first compound 0.0316 µM
[2] = second compound 0.000949 µM, first compound 0.1 µM
[3] = second compound 0.000949 µM, first compound 0.316 µM
[4] = second compound 0.000949 µM, first compound 1 µM
[5] = second compound 0.003 µM, first compound 0.0316 µM
[6] = second compound 0.003 µM, first compound 0.1 µM
[7] = second compound 0.003 µM, first compound 0.316 µM
[8] = second compound 0.003 µM, first compound 1 µM
[9] = second compound 0.00949 µM, first compound 0.0316 µM
[10] = second compound 0.00949 µM, first compound 0.1 µM
[11] = second compound 0.00949 µM, first compound 0.316 µM
[12] = second compound 0.00949 µM, first compound 1 µM
[13] = second compound 0.03 µM, first compound 0.0316 µM
[14] = second compound 0.03 µM, first compound 0.1 µM
[15] = second compound 0.03 µM, first compound 0.316 µM
[16] = second compound 0.03 µM, first compound 1 µM
[17] = second compound 0.0949 µM, first compound 0.0316 µM
[18] = second compound 0.0949 µM, first compound 0.1 µM
[19] = second compound 0.0949 µM, first compound 0.316 µM
[20] = second compound 0.0949 µM, first compound 1 µM
[21] = second compound 0.3 µM, first compound 0.0316 µM
[22] = second compound 0.3 µM, first compound 0.1 µM
[23] = second compound 0.3 µM, first compound 0.316 µM
[24] = second compound 0.3 µM, first compound 1 µM
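Also: spheroids exposed to compounds for 7 days.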
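For viability, T/C in this document: 100% = DMSO vehicle control viability.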

- IC50 (second compound 0.00316 µM): < 0.949 nM
- IC50 (second compound 0.01 µM): < 0.949 nM
- IC50 (second compound 0.0316 µM): < 0.949 nM
- IC50 (second compound 0.1 µM): < 0.949 nM
- IC50 (second compound 0.316 µM): < 0.949 nM
- IC50 (second compound 1 µM): < 0.949 nM
SMILES: CC1(C)CCC(Nc2ncc(C(F)(F)F)c(-c3c[nH]c4c(P(C)(C)=O)c(C#N)ccc34)n2)CN1 (stereo unspecified) + C=CC(=O)N1CCN(c2nc(OCC3CCCN3C)nc3c(F)c(-c4nc(N)cc(C)c4C(F)(F)F)c(Cl)cc23)C(C)C1
- viability, T/C (second compound 0.00316 µM, first compound 0.000949 µM): 27.1%
- viability, T/C (second compound 0.00316 µM, first compound 0.003 µM): 29.2%
- viability, T/C (second compound 0.00316 µM, first compound 0.00949 µM): 25.8%
- viability, T/C (second compound 0.00316 µM, first compound 0.03 µM): 25.1%
- viability, T/C (second compound 0.00316 µM, first compound 0.0949 µM): 27.3%
- viability, T/C (second compound 0.00316 µM, first compound 0.3 µM): 28.8%
- viability, T/C (second compound 0.01 µM, first compound 0.000949 µM): 23.1%
- viability, T/C (second compound 0.01 µM, first compound 0.003 µM): 20.7%
- viability, T/C (second compound 0.01 µM, first compound 0.00949 µM): 28.3%
- viability, T/C (second compound 0.01 µM, first compound 0.03 µM): 24.7%
- viability, T/C (second compound 0.01 µM, first compound 0.0949 µM): 26.8%
- viability, T/C (second compound 0.01 µM, first compound 0.3 µM): 28.3%
- viability, T/C (second compound 0.0316 µM, first compound 0.000949 µM): 24.6%
- viability, T/C (second compound 0.0316 µM, first compound 0.003 µM): 24.4%
- viability, T/C (second compound 0.0316 µM, first compound 0.00949 µM): 22.2%
- viability, T/C (second compound 0.0316 µM, first compound 0.03 µM): 23.3%
- viability, T/C (second compound 0.0316 µM, first compound 0.0949 µM): 27.2%
- viability, T/C (second compound 0.0316 µM, first compound 0.3 µM): 27.4%
- viability, T/C (second compound 0.1 µM, first compound 0.000949 µM): 24.6%
- viability, T/C (second compound 0.1 µM, first compound 0.003 µM): 22.3%
- viability, T/C (second compound 0.1 µM, first compound 0.00949 µM): 25.5%
- viability, T/C (second compound 0.1 µM, first compound 0.03 µM): 23.4%
- viability, T/C (second compound 0.1 µM, first compound 0.0949 µM): 26.6%
- viability, T/C (second compound 0.1 µM, first compound 0.3 µM): 27.6%
- viability, T/C (second compound 0.316 µM, first compound 0.000949 µM): 20%
- viability, T/C (second compound 0.316 µM, first compound 0.003 µM): 20.3%
- viability, T/C (second compound 0.316 µM, first compound 0.00949 µM): 25.5%
- viability, T/C (second compound 0.316 µM, first compound 0.03 µM): 24.6%
- viability, T/C (second compound 0.316 µM, first compound 0.0949 µM): 25.8%
- viability, T/C (second compound 0.316 µM, first compound 0.3 µM): 24.5%
- viability, T/C (second compound 1 µM, first compound 0.000949 µM): 22.1%
- viability, T/C (second compound 1 µM, first compound 0.003 µM): 22.3%
- viability, T/C (second compound 1 µM, first compound 0.00949 µM): 21.1%
- viability, T/C (second compound 1 µM, first compound 0.03 µM): 24.2%
- viability, T/C (second compound 1 µM, first compound 0.0949 µM): 30.4%
- viability, T/C (second compound 1 µM, first compound 0.3 µM): 26.2%

- IC50 (second compound 0.000949 µM): < 31.6 nM
- IC50 (second compound 0.003 µM): < 31.6 nM
- IC50 (second compound 0.00949 µM): < 31.6 nM
- IC50 (second compound 0.03 µM): < 31.6 nM
- IC50 (second compound 0.0949 µM): < 31.6 nM
- IC50 (second compound 0.3 µM): < 31.6 nM
SMILES: CC(Nc1ccc2c(c1)OCCn1cc(N3C(=O)OCC3C(F)F)nc1-2)C(N)=O (stereo unspecified) + CCn1c(-c2cc(N3CCN(C)CC3)cnc2C(C)OC)c2c3cc(ccc31)-c1csc(n1)CC(NC(=O)C1CC1C)C(=O)N1CCCC(N1)C(=O)OCC(C)(C)C2
- viability, T/C [1]: 24.6%
- viability, T/C [2]: 19%
- viability, T/C [3]: 13%
- viability, T/C [4]: 11.9%
- viability, T/C (second compound 0.000949 µM, first compound 3.16 µM): 9.45%
- viability, T/C (second compound 0.000949 µM, first compound 10 µM): 10.7%
- viability, T/C [5]: 16.9%
- viability, T/C [6]: 14.2%
- viability, T/C [7]: 9.14%
- viability, T/C [8]: 8.16%
- viability, T/C (second compound 0.003 µM, first compound 3.16 µM): 6.87%
- viability, T/C (second compound 0.003 µM, first compound 10 µM): 5.82%
- viability, T/C [9]: 16.1%
- viability, T/C [10]: 12.1%
- viability, T/C [11]: 9.35%
- viability, T/C [12]: 6.74%
- viability, T/C (second compound 0.00949 µM, first compound 3.16 µM): 5.6%
- viability, T/C (second compound 0.00949 µM, first compound 10 µM): 4.57%
- viability, T/C [13]: 13.4%
- viability, T/C [14]: 11.8%
- viability, T/C [15]: 9.06%
- viability, T/C [16]: 6.27%
- viability, T/C (second compound 0.03 µM, first compound 3.16 µM): 5.7%
- viability, T/C (second compound 0.03 µM, first compound 10 µM): 4.35%
- viability, T/C [17]: 15.5%
- viability, T/C [18]: 12.1%
- viability, T/C [19]: 8.62%
- viability, T/C [20]: 6.05%
- viability, T/C (second compound 0.0949 µM, first compound 3.16 µM): 5.83%
- viability, T/C (second compound 0.0949 µM, first compound 10 µM): 4.73%
- viability, T/C [21]: 13.9%
- viability, T/C [22]: 11.8%
- viability, T/C [23]: 10.2%
- viability, T/C [24]: 6.6%
- viability, T/C (second compound 0.3 µM, first compound 3.16 µM): 5.26%
- viability, T/C (second compound 0.3 µM, first compound 10 µM): 4.96%

- IC50 (second compound 0.000949 µM): < 3.16 nM
- IC50 (second compound 0.003 µM): < 3.16 nM
- IC50 (second compound 0.00949 µM): < 3.16 nM
- IC50 (second compound 0.03 µM): < 3.16 nM
- IC50 (second compound 0.0949 µM): < 3.16 nM
- IC50 (second compound 0.3 µM): < 3.16 nM
SMILES: CCN1CCN(Cc2ccc(Nc3ncc(F)c(-c4cc(F)c5nc(C)n(C(C)C)c5c4)n3)nc2)CC1 + CCn1c(-c2cc(N3CCN(C)CC3)cnc2C(C)OC)c2c3cc(ccc31)-c1csc(n1)CC(NC(=O)C1CC1C)C(=O)N1CCCC(N1)C(=O)OCC(C)(C)C2
- viability, T/C (second compound 0.000949 µM, first compound 0.00316 µM): 34.5%
- viability, T/C (second compound 0.000949 µM, first compound 0.01 µM): 29.8%
- viability, T/C [1]: 26.8%
- viability, T/C [2]: 29.4%
- viability, T/C [3]: 29.5%
- viability, T/C [4]: 43.6%
- viability, T/C (second compound 0.003 µM, first compound 0.00316 µM): 25.6%
- viability, T/C (second compound 0.003 µM, first compound 0.01 µM): 21.5%
- viability, T/C [5]: 21.9%
- viability, T/C [6]: 22.6%
- viability, T/C [7]: 25%
- viability, T/C [8]: 34.7%
- viability, T/C (second compound 0.00949 µM, first compound 0.00316 µM): 18.7%
- viability, T/C (second compound 0.00949 µM, first compound 0.01 µM): 17.4%
- viability, T/C [9]: 18.3%
- viability, T/C [10]: 16.3%
- viability, T/C [11]: 23.1%
- viability, T/C [12]: 28.6%
- viability, T/C (second compound 0.03 µM, first compound 0.00316 µM): 18.9%
- viability, T/C (second compound 0.03 µM, first compound 0.01 µM): 22.9%
- viability, T/C [13]: 17.6%
- viability, T/C [14]: 17.3%
- viability, T/C [15]: 21.8%
- viability, T/C [16]: 31.1%
- viability, T/C (second compound 0.0949 µM, first compound 0.00316 µM): 19.7%
- viability, T/C (second compound 0.0949 µM, first compound 0.01 µM): 18.4%
- viability, T/C [17]: 18.8%
- viability, T/C [18]: 17.9%
- viability, T/C [19]: 24.5%
- viability, T/C [20]: 31.4%
- viability, T/C (second compound 0.3 µM, first compound 0.00316 µM): 17.9%
- viability, T/C (second compound 0.3 µM, first compound 0.01 µM): 19.8%
- viability, T/C [21]: 20.9%
- viability, T/C [22]: 19.1%
- viability, T/C [23]: 25.9%
- viability, T/C [24]: 33.5%
